The subject of assay [1] is FATP5. As to the kind of experiment: Hepatic FATP5 expression (Northern blotting) in ZDF rats treated with LGD 1069. Format: in vivo, rat. The following applies: LGD 1069 in food 0.3-30 mg/kg/day for 50 days from age 7 weeks; Northern blot; FIG. 15. Here is the method: Male diabetic fatty rats (Zucker diabetic fatty rats (ZDF rats)) are kept in an animal house with free access to food and water, the nyctohemeral rhythm being observed.
The compound LGD 1069 is added to the food at a dose of 0.3, 1.0, 3.0, 10 or 30 mg/kg/day and administered for 50 days as from the age of 7 weeks. 4 animals are fed without the addition of LGD 1069: 2 ZDF and 2 ZLC. The animals are fasted and sacrificed the next day. The tissues are collected and frozen immediately in liquid nitrogen.
The hepatic RNAs are extracted by the conventional technique derived from Chomczynski and Sacchi. The expression is analysed by Northern blotting with hybridization using a radioactive cDNA probe specific for FATP5.

Assay [2] concerns ZDF rats. Kind of assay: Reversal of the diabetic phenotype in the ZDF rat by an insulin sensitizer. The following applies: LGD 1069 in food 0.3-30 mg/kg/day for 50 days from age 7 weeks. Format: in vivo. The protocol:
Male diabetic fatty rats (Zucker diabetic fatty rats (ZDF rats)) are kept in an animal house with free access to food and water, the nyctohemeral rhythm being observed. The compound LGD 1069 is added to the food at a dose of 0.3, 1.0, 3.0, 10 or 30 mg/kg/day and administered for 50 days as from the age of 7 weeks. 4 animals are fed without the addition of LGD 1069: 2 ZDF and 2 ZLC. The animals are fasted and sacrificed the next day. The tissues are collected and frozen immediately in liquid nitrogen.

Molecules are shown by their SMILES.

Take `C=C(c1ccc(C(=O)O)cc1)c1cc2c(cc1C)C(C)(C)CCC2(C)C` [RXR agonist, bexarotene]: the “Negative regulation of the expression of FATP5 in the liver of ZDF rats compared with ZLC rats” value in assay [1] is given as “counteracted”. Besides, the development of diabetes result in assay [2] is “reverses the development of diabetes”.

These data come from patent US20070105115A1, “Promoter of the human fatp5 gene and uses” (MERCK SANTE, priority 2003, published 2007).
